Residues, ends and D or L forms follow the SMILES beside them. No end group written: not given here.
How the values were obtained:
Format in all cases: cell-based
[1] = tested on: head and neck cancer cells; experiment: Dose-dependent cell apoptosis by MTT assay, cancer cell lines (Example 5); conditions: MTT at 72 hours
Method: (§1) The cell line was made by the cells and the cell cultivation method described in example 2 as same.
(§2) After culturing the cancer cells and normal cells at 96 well-plate in 30-40% level 24-hours in advance by pre-seeding, treating with each reagent, and pre-evaluating killing ability by analyzing cell shape through microscope at 24 hours/48 hours/72 hours after, the quantitative analysis was done by MTT (3-(4,5-dimethylthiazol-2-yl)-2,5-diphenyltetrazolium bromide, a yellow tetrazole) assay which measures OD (optical density) values at 72 hours after.

[2] = tested on: normal cell DPSC (Dental Pulp Stem Cell); experiment: Dose-dependent cell apoptosis by MTT assay, normal cells (Example 5)
Method: as §1, §2

[3] = tested on: HN5 and OSC19 head and neck cancer cells; experiment: Intracellular trafficking (cell penetrability) by flow cytometry (FACS); conditions: 10 uM, 2.5 hours
Method: (§3) In order to analysis of intracellular trafficking, Korean head and neck cancer cells (SNU-1041, SNU-1076), head and neck cancer cells founded by MD Anderson cancer center (OSC19, HN5), and normal cells DPSC (Dental Pulp Stem Cell) were used. The cell lines was maintained in good condition by seeding each cells to 100 cm2-culture dishes with RPMI-1640 or DMEM culture-media, 10% FBS and antibiotic-antimycotic antibiotics and culturing in incubator (37° C., 5% CO2). The condition of cells was maintained in good condition by checking the speed and conditions of cells and sub-culturing cells per 2-5 days.

[4] = tested on: head and neck cancer cells; experiment: as above; conditions: 10 uM, 2.5 hours
Method: as §3

[5] = tested on: SNU-1041 and SNU-1076 head and neck cancer cells; experiment: as above; conditions: SNU-1041 and SNU-1076 cells, 10 uM, 2.5 hours, FIG. 2
Method: In order to analysis of intracellular trafficking, Korean head and neck cancer cells (SNU-1041, SNU-1076), head and neck cancer cells founded by MD Anderson cancer center (OSC19, HN5), and normal cells DPSC (Dental Pulp Stem Cell) were used.
The cell lines was maintained in good condition by seeding each cells to 100 cm2-culture dishes with RPMI-1640 or DMEM culture-media, 10% FBS and antibiotic-antimycotic antibiotics and culturing in incubator (37° C., 5% CO2). The condition of cells was maintained in good condition by checking the speed and conditions of cells and sub-culturing cells per 2-5 days.
After culturing the cells with prepared cancer cells in 6 well-plate at 60-70% level 24-hours in advance, treating FITC (10 uM), pep1-FITC (10 uM), FITC-TAT (10 uM) separately, eliminating the culture media 2.5 hours later, washing with saline, and separating cells by treating Trypsin-EDTA enzyme to prepare each tube of 10^6 cells/ml, the cells was analyzed by FACS.

For `Cc1ccc(S(=O)(=O)OCC(=O)Nc2ccc(C(=O)O)c(O)c2)cc1` [NSC 74859], the “concentration from which killing / apoptosis of cancer cells started” value ([1]; FIG. 4, FIG. 5) was 50 µM, the “concentration killing almost the whole cancer cells” value ([1]; FIG. 4, FIG. 5) was 200 µM and the “concentration at which cell apoptosis of normal cells was shown” value ([2]; MTT at 72 hours, FIG. 4) was 200 µM. The “concentration till which normal cells were not killed” value ([2]; MTT at 72 hours, FIG. 4) was 100 µM.
In the case of `CSCC[C@H](NC(=O)[C@H](CC(N)=O)NC(=O)[C@H](CCCNC(=N)N)NC(=O)CNC(=O)[C@H](C)NC(=O)[C@H](CCCCN)NC(=O)[C@H](Cc1ccccc1)NC(=O)CNC(=O)[C@H](CCCNC(=N)N)NC(=O)[C@H](CC(N)=O)NC(=O)c1ccc(NC(=O)COS(=O)(=O)c2ccc(C)cc2)cc1O)C(=O)N[C@@H](CCCNC(=N)N)C(=O)N[C@@H](CCCNC(=N)N)C(=O)N[C@@H](CCCCN)C(=O)N[C@@H](CC(C)C)C(=O)N[C@@H](Cc1ccccc1)C(=O)NCC(=O)N[C@H](C(=O)N[C@@H](CC(C)C)C(=O)N[C@@H](CCCNC(=N)N)C(=O)N[C@@H](CC(C)C)C(=O)O)C(C)C` [pep98-NSC 74859] (HELM PEPTIDE1{[Cc1ccc(S(=O)(=O)OCC(=O)[*:2])cc1].[O=C(c1ccc(N[*:1])cc1O)[*:2]].N.R.G.F.K.A.G.R.N.M.R.R.K.L.F.G.V.L.R.L}$$$$V2.0), the “killing of normal cells (in words)” value ([2]; at the concentration that killed almost the whole cancer cells, FIG. 5) is reported as “did not kill normal cell DPSC”.
In the case of NRGFKAGRNMRRKLFGVLRL [pep98], the “proliferation of cancer cells (cytotoxicity)” value ([1]; treated alone, FIG. 3) is reported as “not significantly decreased”.
For “pep1-FITC (EARPALLTSRLRFIPK; also: FITC label, site not given here; UniProt O14746 611-626, looked up, fragment)”, the “cell penetrability (in words)” value [3] was “lower cell penetrability” and the “cell penetrability compared with FITC only” value [4] was “improved cell penetrability than the FITC only”.
In the case of “pep 1: pep 1 (consists of 16 amino acids) derived from telomerase, used for comparison (EARPALLTSRLRFIPK; UniProt O14746 611-626, looked up, fragment)”, the “cell penetrability (in words)” value [5] is reported as “high cell penetrability”.

From patent publication US9757473B2, “Cell-penetrating peptide and conjugate comprising same” (GEMVAX & KAEL CO., LTD., priority 2013, dated 2017)
